From patent US6339045B1, “N-(unsubstituted or substituted)-4-substituted-6-(unsubstituted or substituted)phenoxy-2-pyridinecarboxamides or thiocarboxamides, processes for producing the same, and herbicides” (Kureha Kagaku Kogyo Kabushiki Kaisha, priority 1995, dated 2002)

Tests used:
Assay in all cases: Herbicidal effect by foliage and soil treatment
Format in all cases: in vivo
Settings in all cases: 10 g ai/10a, evaluated after 14 days
[1] = tested on: ivyleafspeedwell (Veronica hederaefolia)
Excerpt: (§1) Experiment for Determination of Herbicidal Effect by Foliate and Soil Treatment Seeds of redroot pigweed (Amaranthus retroflexus), common blackjack (Bidens pilosa), kediock (Sinapis arvensis), common chickweed (Stellaria media), sicklepod (Cassia obtusifolia), black nightshade (Solanum nigrum), velvetleaf (Abutilon theophrasti), field bindweed (Convolvulus arvensis), wild chamomile (Matricaria chamomilla), cleavers (Galium aparine) and […] (Veronica hederaefolia), were uniformly sowed over a horticultural granular soil (produced by KUREHA CHEMICAL INDUSTRY, CO., LTD.; the same soil was used hereinafter) filled in a planter. The planter was placed in a greenhouse (maintained at 19 to 25° C.) to sprout these plants. Two seedlings of each sprouted plant were transplanted to a 10 cm-diameter pot filled with the horticultural granular soil and cultivated in the greenhouse (maintained at 19 to 25° C.) until reaching a cotyledonal to bifoliate period suited to the foliage and soil treatment. […] Next, additional amounts of Tween 20 and water were added to the obtained solution or suspension to produce a test solution. The plants prepared in the above (1) were placed within a frame having a predetermined inside area, and uniformly sprayed with the test solution using a sprayer such that the amount of each compound applied was controlled to a predetermined level. The plants sprayed with the test solution were placed again in the greenhouse (maintained at 19 to 25° C.) and cultivated therein. After 14 days, the degree of growth of each plant cultivated in the treated region was compared with that of plant cultivated in non-treated region, and evaluated according to the following ratings. The herbicidal activity of each test compound was represented by these ratings

[2] = tested on: velvetleaf (Abutilon theophrasti)
Excerpt: as §1

[3] = tested on: sicklepod (Cassia obtusifolia)
Excerpt: as §1

[4] = tested on: common chickweed (Stellaria media)
Excerpt: as §1

[5] = tested on: field bindweed (Convolvulus arvensis)
Excerpt: as §1

[6] = tested on: wild chamomile (Matricaria chamomilla)
Excerpt: as §1

[7] = tested on: cleavers (Galium aparine)
Excerpt: as §1

[8] = tested on: black nightshade (Solanum nigrum)
Excerpt: as §1

[9] = tested on: kediock (Sinapis arvensis)
Excerpt: as §1

[10] = tested on: common blackjack (Bidens pilosa)
Excerpt: as §1

[11] = tested on: redroot pigweed (Amaranthus retroflexus)
Excerpt: as §1

For `COc1cc(Oc2cccc(C(F)(F)F)c2)nc(C(=O)Nc2ccccc2)c1` [Compound I-1, N-phenyl-4-methoxy-6-{3-(trifluoromethyl)phenoxy}-2-pyridine carboxamide], the “herbicidal activity rating, VH (Veronica hederaefolia)” value (“herbicidal activity rating, VH” for short) [1] was 5 (percentage of weeds killed was not less than 80%), the “herbicidal activity rating, AT (Abutilon theophrasti)” value [2] was 4 (percentage of weeds killed was not less than 60% and less than 80%) and the “herbicidal activity rating, CO (Cassia obtusifolia)” value (shortened to “herbicidal activity rating, CO”) [3] was 5 (percentage of weeds killed was not less than 80%). The “herbicidal activity rating, SM (Stellaria media)” value (from here on “herbicidal activity rating, SM”) [4] was 4 (percentage of weeds killed was not less than 60% and less than 80%), the “herbicidal activity rating, CA (Convolvulus arvensis)” value (shortened to “herbicidal activity rating, CA”) [5] was 4 (percentage of weeds killed was not less than 60% and less than 80%) and the “herbicidal activity rating, MC (Matricaria chamomilla)” value (from here on “herbicidal activity rating, MC”) [6] was 4 (percentage of weeds killed was not less than 60% and less than 80%). For the same compound, the “herbicidal activity rating, GA (Galium aparine)” value (shortened to “herbicidal activity rating, GA”) [7] was 5 (percentage of weeds killed was not less than 80%), the “herbicidal activity rating, SN (Solanum nigrum)” value (from here on “herbicidal activity rating, SN”) [8] was 5 (percentage of weeds killed was not less than 80%) and the “herbicidal activity rating, SA (Sinapis arvensis)” value (“herbicidal activity rating, SA” for short) [9] was 5 (percentage of weeds killed was not less than 80%). For the same compound, the “herbicidal activity rating, BP (Bidens pilosa)” value (“herbicidal activity rating, BP” for short) [10] was 5 (percentage of weeds killed was not less than 80%) and the “herbicidal activity rating, AR (Amaranthus retroflexus)” value (shortened to “herbicidal activity rating, AR”) [11] was 5 (percentage of weeds killed was not less than 80%).
In the case of `COc1cc(Oc2cccc(C(F)(F)F)c2)nc(C(=O)Nc2ccc(Cl)cc2)c1` [Compound I-2], the “herbicidal activity rating, VH” value [1] is reported as 5 (percentage of weeds killed was not less than 80%), the “herbicidal activity rating, AT (Abutilon theophrasti)” value [2] is reported as 4 (percentage of weeds killed was not less than 60% and less than 80%) and the “herbicidal activity rating, CO” value [3] is reported as 5 (percentage of weeds killed was not less than 80%). The “herbicidal activity rating, SM” value [4] was 4 (percentage of weeds killed was not less than 60% and less than 80%), the “herbicidal activity rating, CA” value [5] was 5 (percentage of weeds killed was not less than 80%) and the “herbicidal activity rating, MC” value [6] was 3 (percentage of weeds killed was not less than 40% and less than 60%). The “herbicidal activity rating, GA” value [7] was 5 (percentage of weeds killed was not less than 80%), the “herbicidal activity rating, SN” value [8] was 5 (percentage of weeds killed was not less than 80%) and the “herbicidal activity rating, SA” value [9] was 5 (percentage of weeds killed was not less than 80%). For the same compound, the “herbicidal activity rating, BP” value [10] was 5 (percentage of weeds killed was not less than 80%) and the “herbicidal activity rating, AR” value [11] was 5 (percentage of weeds killed was not less than 80%).
`COc1cc(Oc2cccc(C(F)(F)F)c2)nc(C(=O)Nc2ccc(F)cc2)c1` [Compound I-11] was tested, and the “herbicidal activity rating, VH” value [1] was 5 (percentage of weeds killed was not less than 80%), the “herbicidal activity rating, AT (Abutilon theophrasti)” value [2] was 3 (percentage of weeds killed was not less than 40% and less than 60%) and the “herbicidal activity rating, CO” value [3] was 5 (percentage of weeds killed was not less than 80%). The “herbicidal activity rating, SM” value [4] was 4 (percentage of weeds killed was not less than 60% and less than 80%), the “herbicidal activity rating, CA” value [5] was 4 (percentage of weeds killed was not less than 60% and less than 80%) and the “herbicidal activity rating, MC” value [6] was 4 (percentage of weeds killed was not less than 60% and less than 80%). For the same compound, the “herbicidal activity rating, GA” value [7] was 5 (percentage of weeds killed was not less than 80%), the “herbicidal activity rating, SN” value [8] was 5 (percentage of weeds killed was not less than 80%) and the “herbicidal activity rating, SA” value [9] was 5 (percentage of weeds killed was not less than 80%). For the same compound, the “herbicidal activity rating, BP” value [10] was 5 (percentage of weeds killed was not less than 80%) and the “herbicidal activity rating, AR” value [11] was 5 (percentage of weeds killed was not less than 80%).
In the case of `COc1cc(Oc2cccc(OC(F)(F)F)c2)nc(C(=O)Nc2ccccc2)c1` [Compound I-20, N-phenyl-4-methoxy-6-{3-(trifluoromethoxy)phenoxy}-2-pyridine carboxamide], the “herbicidal activity rating, VH” value [1] is reported as 5 (percentage of weeds killed was not less than 80%), the “herbicidal activity rating, AT (Abutilon theophrasti)” value [2] is reported as 4 (percentage of weeds killed was not less than 60% and less than 80%) and the “herbicidal activity rating, CO” value [3] is reported as 5 (percentage of weeds killed was not less than 80%). The “herbicidal activity rating, SM” value [4] was 5 (percentage of weeds killed was not less than 80%), the “herbicidal activity rating, CA” value [5] was 4 (percentage of weeds killed was not less than 60% and less than 80%) and the “herbicidal activity rating, MC” value [6] was 4 (percentage of weeds killed was not less than 60% and less than 80%). The “herbicidal activity rating, GA” value [7] was 5 (percentage of weeds killed was not less than 80%), the “herbicidal activity rating, SN” value [8] was 5 (percentage of weeds killed was not less than 80%) and the “herbicidal activity rating, SA” value [9] was 5 (percentage of weeds killed was not less than 80%). For the same compound, the “herbicidal activity rating, BP” value [10] was 5 (percentage of weeds killed was not less than 80%) and the “herbicidal activity rating, AR” value [11] was 5 (percentage of weeds killed was not less than 80%).
With `CCCNC(=O)c1cc(OC)cc(Oc2cccc(C(F)(F)F)c2)n1` [Compound I-33, N-(n-propyl)-4-methoxy-6-{3-(trifluoromethyl)phenoxy}-2-pyridine carboxamide] the “herbicidal activity rating, VH” value [1] was 5 (percentage of weeds killed was not less than 80%), the “herbicidal activity rating, AT (Abutilon theophrasti)” value [2] was 5 (percentage of weeds killed was not less than 80%) and the “herbicidal activity rating, CO” value [3] was 5 (percentage of weeds killed was not less than 80%). For the same compound, the “herbicidal activity rating, SM” value [4] was 5 (percentage of weeds killed was not less than 80%), the “herbicidal activity rating, CA” value [5] was 4 (percentage of weeds killed was not less than 60% and less than 80%) and the “herbicidal activity rating, MC” value [6] was 5 (percentage of weeds killed was not less than 80%). The “herbicidal activity rating, GA” value [7] was 5 (percentage of weeds killed was not less than 80%), the “herbicidal activity rating, SN” value [8] was 5 (percentage of weeds killed was not less than 80%) and the “herbicidal activity rating, SA” value [9] was 5 (percentage of weeds killed was not less than 80%). The “herbicidal activity rating, BP” value [10] was 5 (percentage of weeds killed was not less than 80%) and the “herbicidal activity rating, AR” value [11] was 5 (percentage of weeds killed was not less than 80%).
With `CCCNC(=S)c1cc(OC)cc(Oc2cccc(C(F)(F)F)c2)n1` [Compound I-34, N-(n-propyl)-4-methoxy-6-{3-(trifluoromethyl)phenoxy}-2-pyridine thiocarboxamide] the “herbicidal activity rating, VH” value [1] was 5 (percentage of weeds killed was not less than 80%), the “herbicidal activity rating, AT (Abutilon theophrasti)” value [2] was 5 (percentage of weeds killed was not less than 80%) and the “herbicidal activity rating, CO” value [3] was 5 (percentage of weeds killed was not less than 80%). For the same compound, the “herbicidal activity rating, SM” value [4] was 5 (percentage of weeds killed was not less than 80%), the “herbicidal activity rating, CA” value [5] was 4 (percentage of weeds killed was not less than 60% and less than 80%) and the “herbicidal activity rating, MC” value [6] was 5 (percentage of weeds killed was not less than 80%). The “herbicidal activity rating, GA” value [7] was 5 (percentage of weeds killed was not less than 80%), the “herbicidal activity rating, SN” value [8] was 5 (percentage of weeds killed was not less than 80%) and the “herbicidal activity rating, SA” value [9] was 5 (percentage of weeds killed was not less than 80%). The “herbicidal activity rating, BP” value [10] was 5 (percentage of weeds killed was not less than 80%) and the “herbicidal activity rating, AR” value [11] was 5 (percentage of weeds killed was not less than 80%).
For `COc1cc(Oc2cccc(C(F)(F)F)c2)nc(C(=O)NCCCl)c1` [Compound I-35], the “herbicidal activity rating, VH” value [1] was 5 (percentage of weeds killed was not less than 80%), the “herbicidal activity rating, AT (Abutilon theophrasti)” value [2] was 5 (percentage of weeds killed was not less than 80%) and the “herbicidal activity rating, CO” value [3] was 5 (percentage of weeds killed was not less than 80%). The “herbicidal activity rating, SM” value [4] was 5 (percentage of weeds killed was not less than 80%), the “herbicidal activity rating, CA” value [5] was 5 (percentage of weeds killed was not less than 80%) and the “herbicidal activity rating, MC” value [6] was 5 (percentage of weeds killed was not less than 80%). For the same compound, the “herbicidal activity rating, GA” value [7] was 5 (percentage of weeds killed was not less than 80%), the “herbicidal activity rating, SN” value [8] was 5 (percentage of weeds killed was not less than 80%) and the “herbicidal activity rating, SA” value [9] was 5 (percentage of weeds killed was not less than 80%). The “herbicidal activity rating, BP” value [10] was 5 (percentage of weeds killed was not less than 80%) and the “herbicidal activity rating, AR” value [11] was 5 (percentage of weeds killed was not less than 80%).
